For assay [1], the target named is T1, Human GPR120 short form (Homo sapiens, UniProt Q5NUL3).
T1 construct: expressed in transfected cells
T1 sequence (Q5NUL3 1-361): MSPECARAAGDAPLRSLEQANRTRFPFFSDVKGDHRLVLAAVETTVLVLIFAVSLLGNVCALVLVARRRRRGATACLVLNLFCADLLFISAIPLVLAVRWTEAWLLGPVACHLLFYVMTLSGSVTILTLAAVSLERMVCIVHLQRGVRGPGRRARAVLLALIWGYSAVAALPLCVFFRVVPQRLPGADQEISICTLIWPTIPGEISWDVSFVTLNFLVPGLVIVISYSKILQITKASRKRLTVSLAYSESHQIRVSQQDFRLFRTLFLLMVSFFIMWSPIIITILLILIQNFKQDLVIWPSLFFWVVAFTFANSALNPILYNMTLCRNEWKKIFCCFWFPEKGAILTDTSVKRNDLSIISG
Briefly: Human GPR120 calcium flux assay, Procedure Calcium A. It is filed as cell-based. As to conditions: HEK-293 cells expressing human GPR120 short form, 2500 cells/well, FLIPR. The method, boiled down: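 HEK293 cells stably expressing the human GPR120 short splice variant (NM_001195755.1) were seeded at 2500 cells/well, serum-starved 1 h and loaded with Fluo-4 NW plus probenecid. Compounds (100–0.012 μM solutions, 0.2% final DMSO) were added, and FLIPR calcium flux was read for 300 s. EC50 came from a variable-slope fit (Hill <2) of Fmax−Fmin.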

Assay [2] relates to C57bl/6J Mice. Put plainly: GPR120 C57bl6 mouse IPGTT. It is filed as in vivo. As to conditions: 30.0 mg/kg, dosed 30 minutes prior to IP glucose 1.5 g/kg; compared with vehicle. The procedure: Male, C57bl/6J Mice were ordered in at 8 weeks of age from Jackson Labs. Individual mice weighed anywhere in the range of 25-30 grams on study day. The mice were fasted, with removal of food occurring at 7 am on the morning of the study. Animals were moved into the room at 10:00 am, to give them time to acclimate. Glucose (insulin syringes) was drawn up either the night before or the morning of the study. Glucose was dosed (IP) at 1.5 g/kg at 7.5 ml/kg (20% glucose straight TEKNOVA, 250 ml sterile bottle w/ catalogue number G0525). Test compounds were kept spinning and were only drawn into the syringes prior to study commencement. Animals were bled via tail snip to determine basal glucose levels prior to dosing of treatments. An Ascensia BREEZE Blood Glucose Monitoring System by Bayer (using unique 10-test disks) was used for determining glucose levels. The bleeds started at approximately 12:45 pm and dosing started, at 1-minute intervals, immediately after. All groups were dosed 30 minutes prior to glucose administration at a dose volume of 10 ml/kg (the dose volume was calculated separately for each individual animal). Thirty minutes after the first dose animals were bled again for a second baseline, or T=0, and immediately dosed with glucose via an i.p. injection. The exact dose volume for glucose was also calculated separately for each individual animal. […]

Data on four compounds can be found in patent US8912227B1, “Bicyclic pyrrole derivatives useful as agonists of GPR120” (Janssen Pharmaceutica NV, priority 2014, dated 2014).

Regarding `Cc1c(CCC(=O)O)ccc(OCc2cccn2-c2ccc(Cl)cc2)c1C` [Compound 1, 3-(4-{[1-(4-Chlorophenyl)-1H-pyrrol-2-yl]methoxy}-2,3-dimethylphenyl)propanoic acid], the EC50 in assay [1] is 353 nM. In addition, in assay [2], the “GPR120 C57bl6 Mouse IPGTT Results” value is recorded as “not different”.
Regarding `CCc1ccc(-n2ccc(C(F)(F)F)c2COc2ccc(CCC(=O)O)c(F)c2F)cc1` [Compound 34, 3-(4-[[1-(4-ethylphenyl)-3-(trifluoromethyl)-1H-pyrrol-2-yl]methoxy]-2,3-difluorophenyl)propanoic acid], the EC50 in assay [1] came out at 517 nM.
For `OCCCc1ccc(OCc2c(C(F)(F)F)ccn2-c2ccc(Cl)cc2)c(F)c1F` [Compound 29, 3-(4-{[1-(4-Chlorophenyl)-3-(trifluoromethyl)-1H-pyrrol-2-yl]methoxy}-2,3-difluorophenyl)propan-1-ol], the EC50 in assay [1] amounted to 1010 nM.
For the compound `Cc1ccc(-n2ccc(C(F)(F)F)c2COc2c(F)cc(CCC(=O)O)cc2F)cc1` [Compound 39, 3-(3,5-difluoro-4-[[1-(4-methylphenyl)-3-(trifluoromethyl)-1H-pyrrol-2-yl]methoxy]phenyl)propanoic acid], the half-maximal effective concentration (EC50) in assay [1] was 306 nM.
